Results from ChEMBL document CHEMBL5543144, “Discovery of a Novel Potent Tetrazole Antifungal Candidate with High Selectivity and Broad Spectrum” (J Med Chem, 2024).
Converted amounts (≈) assume the structure as drawn. The source made the active and inactive calls. The calls are words filed in the database; no cut-off is given here.

Columns and labels:
[Candida] auris [1] = Antifungal activity against fluconazole resistant Candida auris 887 assessed as inhibition of fungal growth incubated for 48 hrs by CLSI protocol based microbroth dilution method; format: functional; details: Candidozyma auris
Cell membrane = experiment: Disruption of cell membrane integrity in Candida albicans SC5314 assessed as increase in increase in red fluorescence at 0.5 ug/ml incubated for 8 hrs by PI staining based fluorescence microscopic analysis; details: dose 0.5 µg/ml
[2] = AUC (0 to t) in male ICR (CD-1) mouse at 5 mg/kg, iv by LC-MS/MS analysis; format: ADME, organism-based; details: in vivo
Nakaseomyces glabratus [3] = experiment: Antifungal activity against Candida glabrata 537 assessed as inhibition of fungal growth at 0.25 ug/ml incubated for 24 hrs by plate reader analysis; format: functional, organism-based; details: dose 0.25 µg/ml
Pichia kudriavzevii [4] = experiment: Antifungal activity against Candida krusei 4946 assessed as inhibition of fungal growth incubated for 24 hrs by CLSI protocol based microbroth dilution method; format: functional
Candida tropicalis [5] = experiment: Antifungal activity against Candida tropicalis 2718 assessed as inhibition of fungal growth incubated for 24 hrs by CLSI protocol based microbroth dilution method; format: functional
Candida tropicalis [6] = experiment: Antifungal activity against Candida tropicalis 2718 assessed as inhibition of fungal growth at 32 ug/ml incubated for 24 hrs by plate reader analysis; format: functional, organism-based; details: dose 32.0 µg/ml
Candida albicans [7] = experiment: Antifungal activity against Candida albicans SC5314 infected in ICR mouse model assessed as fungal burden in kidney at 5 mg/kg/day, po pre-infected with fungi for 2 hrs followed by compound administration and measured after 48 hrs (reference value: 3.89 Log10CFU/g); format: functional
Cryptococcus neoformans [8] = experiment: Antifungal activity against Cryptococcus neoformans H99 assessed as inhibition of fungal growth at 0.125 ug/ml incubated for 48 hrs by plate reader analysis; format: functional, organism-based; details: dose 0.125 µg/ml
Aspergillus fumigatus = experiment: Antifungal activity against Aspergillus fumigatus 7544 assessed as inhibition of fungal growth incubated for 48 hrs by CLSI protocol based microbroth dilution method; format: functional
Candida albicans [9] = experiment: Inhibition of biofilm formation in Candida albicans SC5314 at 0.008 ug/ml incubated for 24 hrs by XTT reduction assay relative to control; format: functional
[10] = target: T1, Lanosterol 14-alpha demethylase (Candida albicans (strain SC5314 / ATCC MYA-2876) (Yeast), UniProt P10613); experiment: Inhibition of CYP51 in Candida albicans SC5314 assessed as increase in eburicol level at 0.008 ug/ml incubated for 8 hrs by GC-MS analysis relative to control; set-up: scale not given: the % may be the effect or the level left; details: at 0.008 µg/mL
T1 sequence (P10613 whole entry): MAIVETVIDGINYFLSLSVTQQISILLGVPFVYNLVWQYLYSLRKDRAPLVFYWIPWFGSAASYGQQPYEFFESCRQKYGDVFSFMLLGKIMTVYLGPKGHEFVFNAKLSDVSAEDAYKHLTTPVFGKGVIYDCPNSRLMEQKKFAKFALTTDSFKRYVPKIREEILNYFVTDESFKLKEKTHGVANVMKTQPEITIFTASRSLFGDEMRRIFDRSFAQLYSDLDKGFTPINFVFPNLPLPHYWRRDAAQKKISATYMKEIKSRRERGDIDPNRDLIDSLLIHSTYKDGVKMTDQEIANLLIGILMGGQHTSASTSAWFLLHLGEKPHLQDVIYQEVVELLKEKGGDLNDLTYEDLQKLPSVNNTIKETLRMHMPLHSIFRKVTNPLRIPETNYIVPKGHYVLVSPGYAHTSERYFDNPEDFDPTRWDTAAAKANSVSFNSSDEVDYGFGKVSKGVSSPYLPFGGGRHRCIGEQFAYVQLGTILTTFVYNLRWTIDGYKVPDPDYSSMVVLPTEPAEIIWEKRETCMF

[Candida] auris [11] = Antifungal activity against fluconazole resistant Candida auris BS12372 assessed as inhibition of fungal growth incubated for 48 hrs by CLSI protocol based microbroth dilution method; format: functional; details: Candidozyma auris
[12] = AUC (0 to t) in male ICR (CD-1) mouse at 10 mg/kg, po by LC-MS/MS analysis; format: ADME, organism-based; details: in vivo
Candida albicans [13] = experiment: Antifungal activity against Candida albicans SC5314 infected in ICR mouse model assessed as median survival time at 5 mg/kg/day, po pre-infected with fungi for 2 hrs followed by compound administration and measured after 48 hrs (reference value: 3.5 days); format: functional
[14] = Half-life in male ICR (CD-1) mouse at 5 mg/kg, iv by LC-MS/MS analysis; format: ADME, organism-based; details: in vivo
[15] = MRT (0 to t) in male ICR (CD-1) mouse at 10 mg/kg, po by LC-MS/MS analysis; format: ADME, organism-based; details: in vivo
[Candida] auris [16] = Antifungal activity against fluconazole resistant Candida auris D12 assessed as inhibition of fungal growth incubated for 48 hrs by CLSI protocol based microbroth dilution method; format: functional; details: Candidozyma auris
Cryptococcus neoformans [17] = experiment: Antifungal activity against Cryptococcus neoformans H99 assessed as inhibition of fungal growth incubated for 72 hrs by CLSI protocol based microbroth dilution method; format: functional
[18] = target: T1, Lanosterol 14-alpha demethylase; experiment: Inhibition of CYP51 in Candida albicans SC5314 assessed as increase in obtusifoliol level at 0.008 ug/ml incubated for 8 hrs by GC-MS analysis relative to control; set-up: scale not given: the % may be the effect or the level left; details: at 0.008 µg/mL
Candida albicans [19] = experiment: Antifungal activity against Candida albicans SC5314 assessed as inhibition of fungal growth incubated for 24 hrs by CLSI protocol based microbroth dilution method; format: functional
Candida albicans [20] = experiment: Inhibition of biofilm formation in Candida albicans SC5314 incubated for 24 hrs by XTT reduction assay; format: functional, organism-based; details: dose 0.008-4 µg/ml
[21] = Clearance in male ICR (CD-1) mouse at 5 mg/kg, iv by LC-MS/MS analysis; format: ADME, organism-based; details: in vivo
Pichia kudriavzevii [22] = experiment: Antifungal activity against Candida krusei 4946 assessed as inhibition of fungal growth at 0.125 ug/ml incubated for 24 hrs by plate reader analysis; format: functional, organism-based; details: dose 0.125 µg/ml
Nakaseomyces glabratus [23] = experiment: Antifungal activity against Candida glabrata 537 assessed as inhibition of fungal growth incubated for 48 hrs by CLSI protocol based microbroth dilution method; format: functional
[24] = MRT (0 to t) in male ICR (CD-1) mouse at 5 mg/kg, iv by LC-MS/MS analysis; format: ADME, organism-based; details: in vivo
[Candida] auris [25] = Antifungal activity against fluconazole resistant Candida auris 789 assessed as inhibition of fungal growth incubated for 48 hrs by CLSI protocol based microbroth dilution method; format: functional; details: Candidozyma auris
[26] = Tmax in male ICR (CD-1) mouse at 10 mg/kg, po by LC-MS/MS analysis; format: ADME, organism-based; details: in vivo
Erythrocyte = experiment: Hemolytic activity in rabbit RBC assessed as hemolysis at 64 ug/ml incubated for 1 hrs by absorbance based assay; format: toxicity, cell-based, Oryctolagus cuniculus; details: dose 64 µg/ml
Candida parapsilosis = experiment: Antifungal activity against Candida parapsilosis 22019 assessed as inhibition of fungal growth incubated for 24 hrs by CLSI protocol based microbroth dilution method; format: functional; details: Lodderomyces parapsilosis
Candida albicans [27] = experiment: Antifungal activity against Candida albicans SC5314 infected in ICR mouse model assessed as reduction in fungal burden in kidney pre-infected with fungi for 2 hrs followed by oral administration of compound and measured after 48 hrs; format: functional, organism-based; details: dose 1-5 mg/kg/day
Candida albicans [28] = experiment: Antifungal activity against Candida albicans SC5314 assessed as inhibition of fungal growth at 0.0156 ug/ml incubated for 24 hrs by plate reader analysis; format: functional, organism-based; details: dose 0.0156 µg/ml
[29] = Cmax in male ICR (CD-1) mouse at 10 mg/kg, po by LC-MS/MS analysis; format: ADME, organism-based; details: in vivo
[30] = Oral bioavailability in male ICR (CD-1) mouse at 10 mg/kg by LC-MS//MS analysis; format: ADME, organism-based; details: in vivo
Candida albicans [31] = experiment: Antifungal activity against Candida albicans SC5314 infected in ICR mouse model assessed as fungal burden in kidney at 1 mg/kg/day, po pre-infected with fungi for 2 hrs followed by compound administration and measured after 48 hrs (reference value: 3.89 Log10CFU/g); format: functional
[32] = Half-life in male ICR (CD-1) mouse at 10 mg/kg, po by LC-MS/MS analysis; format: ADME, organism-based; details: in vivo
[33] = target: T1, Lanosterol 14-alpha demethylase; experiment: Inhibition of CYP51 in Candida albicans SC5314 assessed as decrease in ergosterol level at 0.008 ug/ml incubated for 8 hrs by GC-MS analysis; details: at 0.008 µg/mL
Candida albicans [34] = experiment: Antifungal activity against Candida albicans SC5314 infected in ICR mouse model assessed as median survival time at 1 mg/kg/day, po pre-infected with fungi for 2 hrs followed by compound administration and measured after 48 hrs (reference value: 3.5 days); format: functional
Candida albicans [35] = experiment: Antifungal activity in Candida albicans SC5314 assessed as inhibition of fungal growth incubated for 4 days by induction of resistance assay; format: functional; details: SC5314, 96 h, time 4 day
[36] = Volume of distribution at steady state in male ICR (CD-1) mouse at 5 mg/kg, iv by LC-MS/MS analysis; format: ADME, organism-based; details: in vivo, read-out: Vdss
[Candida] auris [37] = Antifungal activity against fluconazole resistant Candida auris 791 assessed as inhibition of fungal growth incubated for 48 hrs by CLSI protocol based microbroth dilution method; format: functional; details: Candidozyma auris
Candida albicans [38] = experiment: Antifungal activity in Candida albicans SC5314 assessed as inhibition of fungal growth incubated for 17 days by induction of resistance assay; format: functional; details: SC5314, 408 h, time 17 day
[Candida] auris [39] = Antifungal activity against fluconazole resistant Candida auris 888 assessed as inhibition of fungal growth incubated for 48 hrs by CLSI protocol based microbroth dilution method; format: functional; details: Candidozyma auris

In the case of C[C@@H](n1ccc2cc(Cl)ccc2c1=O)[C@](O)(Cn1cnnn1)c1ccc(F)cc1F, the MIC50 ([Candida] auris [1]) was 0.5 µg/mL (≈ 1.16 µM), the Activity (Cell membrane) was “Active” and the AUC(0-t) [2] was 18500 ng·h/mL. The Activity (Nakaseomyces glabratus [3]) was “Active”, the MIC50 (Pichia kudriavzevii [4]) was 0.031 µg/mL (≈ 0.0718 µM) and the MIC50 (Candida tropicalis [5]) was less than 0.008 µg/mL. For the same compound, the Activity (Candida tropicalis [6]) was “Active”, the Activity (Candida albicans [7]) was 2.25 log10CFU/g and the Activity (Cryptococcus neoformans [8]) was “Active”. For the same compound, the MIC50 (Aspergillus fumigatus) was 2 µg/mL (≈ 4.63 µM), the inhibition at 0.008 µg/mL (Candida albicans [9]) was greater than 70% and the Activity [10] was 24.85%. The MIC50 ([Candida] auris [11]) was less than 0.125 µg/mL, the AUC(0-t) [12] was 13600 ng·h/mL and the MST (Candida albicans [13]) was 10 days. For the same compound, the half-life [14] was 4.28 h, the MRT last [15] was 3.66 h and the MIC50 ([Candida] auris [16]) was less than 0.125 µg/mL. For the same compound, the MIC50 (Cryptococcus neoformans [17]) was less than 0.008 µg/mL, the Activity [18] was 19.33% and the MIC50 (Candida albicans [19]) was less than 0.008 µg/mL. For the same compound, the inhibition (Candida albicans [20]) was “Dose-Dependent Effect”, the clearance [21] was 3.27 mL/min/kg and the Activity (Pichia kudriavzevii [22]) was “Active”. It also gave an MIC50 (Nakaseomyces glabratus [23]) of less than 0.008 µg/mL, an MRT last [24] of 3.27 h and an MIC50 ([Candida] auris [25]) of 0.5 µg/mL (≈ 1.16 µM). For the same compound, the Tmax [26] was 2 h, the Activity (Erythrocyte) was “Non-Toxic” and the MIC50 (Candida parapsilosis) was less than 0.008 µg/mL. The Activity (Candida albicans [27]) was “Dose-Dependent Effect”, the Activity (Candida albicans [28]) was “Active” and the Cmax [29] was 2630 ng/mL. For the same compound, the bioavailability [30] was 36.8%, the Activity (Candida albicans [31]) was 2.92 log10CFU/g and the half-life [32] was 6.71 h. For the same compound, the “inhibition (INH)” value [33] was “Active”, the MST (Candida albicans [34]) was 8.5 days and the MIC (Candida albicans [35]) was 0.016 µg/mL (≈ 0.0371 µM). It also gave a Vd [36] of 1.23 L/kg, an MIC50 ([Candida] auris [37]) of 1 µg/mL (≈ 2.32 µM) and an MIC (Candida albicans [38]) of 0.125 µg/mL (≈ 0.289 µM). The MIC50 ([Candida] auris [39]) was 0.25 µg/mL (≈ 0.579 µM).
